Data on 20 molecules can be found in patent US20230212222A1 (ANYGEN CO., LTD., priority 2020, published 2023).

Square brackets hold non-standard residues; d marks the D form. Ends that are not written are not given here. Peptide text beside a SMILES is read from it. * marks the point of attachment. His(Trt) = N[C@@H](Cc1cn(C(c2ccccc2)(c2ccccc2)c2ccccc2)cn1)C(=O)O; His(τ-CHPh2) = N[C@@H](Cc1cn(C(c2ccccc2)c2ccccc2)cn1)C(=O)O; Biotin = O=C1N[C@H]2[C@H](CS[C@H]2CCCCC(=O)*)N1; Tyr(3-Cl) = N[C@@H](Cc1ccc(O)c(Cl)c1)C(=O)O; Bip = N[C@@H](Cc1ccc(-c2ccccc2)cc1)C(=O)O; dPhe(4-Cl) = N[C@H](Cc1ccc(Cl)cc1)C(=O)O; dPhe(4-Me) = Cc1ccc(C[C@@H](N)C(=O)O)cc1; Trt = c1ccc(C(c2ccccc2)(c2ccccc2)*)cc1; Lauroyl = CCCCCCCCCCCC(=O)*; Octanoyl = CCCCCCCC(=O)*

One series addresses T1, GPR39 (G protein-coupled receptor 39) (Homo sapiens (Human), UniProt O43194 1-453).
T1 sequence: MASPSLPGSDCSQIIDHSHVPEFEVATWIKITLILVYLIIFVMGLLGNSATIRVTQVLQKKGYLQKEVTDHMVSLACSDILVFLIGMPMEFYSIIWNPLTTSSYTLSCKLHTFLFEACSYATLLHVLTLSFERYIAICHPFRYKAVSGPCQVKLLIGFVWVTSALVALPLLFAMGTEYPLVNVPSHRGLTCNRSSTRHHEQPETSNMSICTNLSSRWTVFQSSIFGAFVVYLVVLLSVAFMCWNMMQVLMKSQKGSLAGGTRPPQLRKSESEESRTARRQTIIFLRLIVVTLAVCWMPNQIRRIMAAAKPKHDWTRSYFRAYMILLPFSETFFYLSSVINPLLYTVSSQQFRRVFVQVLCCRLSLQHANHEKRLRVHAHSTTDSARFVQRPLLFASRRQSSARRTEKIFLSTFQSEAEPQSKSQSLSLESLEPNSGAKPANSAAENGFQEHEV
Description: cell-based or functional assay.
Take His(Trt)-Lys(Octanoyl)-Phe [HKFY-49]: the “EC50 (luciferase reporter)” value worked out at 320 nM and the “ECmax (-fold induction over basal)” value is 18.3 -fold induction over basal.

Turning to H(Trt)K(Octanoyl)YY [HKFY-48], the “EC50 (luciferase reporter)” value was found to be 330 nM and the “ECmax (-fold induction over basal)” value is 14.4 -fold induction over basal.

As to H(Trt)K(Octanoyl)FW [HKFY-46], the “EC50 (luciferase reporter)” value worked out at 260 nM and the “ECmax (-fold induction over basal)” value is 20 -fold induction over basal.

Take H(Trt)K(Octanoyl)FYW [HKFY-44]: the “EC50 (luciferase reporter)” value came to 370 nM and the “ECmax (-fold induction over basal)” value was 20 -fold induction over basal.

Consider Biotin-H(Trt)K(Octanoyl)[Bip]Y [HKFY-45], for which the “EC50 (luciferase reporter)” value was determined as 140 nM and the “ECmax (-fold induction over basal)” value is 21 -fold induction over basal.

H(Trt)K(Octanoyl)YF [HKFY-47]: the “EC50 (luciferase reporter)” value stood at 300 nM and the “ECmax (-fold induction over basal)” value was 13 -fold induction over basal.

A further series has as its target T2, GPR39 (Homo sapiens, UniProt O43194).
T2 sequence (O43194 1-453): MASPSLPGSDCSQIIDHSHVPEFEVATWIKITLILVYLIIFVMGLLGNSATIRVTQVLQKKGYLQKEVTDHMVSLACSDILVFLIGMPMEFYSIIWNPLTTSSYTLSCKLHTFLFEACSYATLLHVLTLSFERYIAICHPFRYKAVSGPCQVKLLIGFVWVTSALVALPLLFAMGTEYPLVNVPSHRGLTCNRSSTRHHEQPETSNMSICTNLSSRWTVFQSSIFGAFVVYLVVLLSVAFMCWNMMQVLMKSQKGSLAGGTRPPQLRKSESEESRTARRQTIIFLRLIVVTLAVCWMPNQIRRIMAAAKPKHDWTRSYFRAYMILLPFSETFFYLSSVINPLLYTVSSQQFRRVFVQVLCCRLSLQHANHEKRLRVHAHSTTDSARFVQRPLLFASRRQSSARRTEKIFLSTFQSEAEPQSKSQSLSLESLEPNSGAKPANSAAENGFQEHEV
Experiment: not given
Regarding `CCCCCCCC(=O)NCCCC[C@H](NC(=O)[C@@H](N)Cc1c[nH]c(-c2ccc(C(C)(C)C)cc2)n1)C(=O)N[C@H](Cc1ccc(C)cc1)C(=O)N[C@@H](Cc1ccc(O)cc1)C(=O)O` [HKFY-60, ((R)-2-((S)-2-((S)-2-amino-3-(2-(4-(tert-butyl)phenyl)-1H-imidazol-4-yl)propanamido)-6-octanamidohexanamido)-3-(p-tolyl)propanoyl)-L-tyrosine], the “ECmax (-fold induction over basal)” value is 28.2 ± 2.5 -fold induction over basal.

As for `CCCCCCCC(=O)NCCCC[C@H](NC(=O)[C@@H](N)Cc1cn(CCC2CCCCC2)cn1)C(=O)N[C@@H](Cc1ccccc1)C(=O)N[C@@H](Cc1ccc(O)cc1)C(=O)O` [HKFY-11, N2-(Nt-(2-cyclohexylethyl)-L-histidyl)-N6-octanoyl-L-lysyl-L-phenylalanyl-L-tyrosine], the “ECmax (-fold induction over basal)” value is 22 ± 2.2 -fold induction over basal.

Regarding `CCCCCCCC(=O)NCCCC[C@H](NC(=O)[C@H](N)Cc1cn(C(c2ccccc2)c2ccccc2)cn1)C(=O)N[C@H](Cc1ccc(C)cc1)C(=O)N[C@@H](Cc1ccc(O)cc1)C(=O)O` [HKFY-62, ((R)-2-((S)-2-((R)-2-amino-3-(1-benzhydryl-1H-imidazol-4-yl)propanamido)-6-octanamidohexanamido)-3-(p-tolyl)propanoyl)-L-tyrosine], the “ECmax (-fold induction over basal)” value is on record as 28.1 ± 2.1 -fold induction over basal.

As for `CCCCCCCC(=O)NCCCC[C@H](NC(=O)[C@@H](N)Cc1cn(C(c2ccccc2)(c2ccccc2)c2ccccc2)cn1)C(=O)N[C@H](Cc1ccc(Cl)cc1)C(=O)N[C@H](Cc1ccc(O)cc1)C(=O)O` [HKFY-15, ((R)-2-((S)-2-((S)-2-amino-3-(1-trityl-1H-imidazol-4-yl)propanamido)-6-octanamidohexanamido)-3-(4-chlorophenyl)propanoyl)-D-tyrosine] (H-[His(Trt)]K(Octanoyl)[dPhe(4-Cl)][dY]-OH), the “ECmax (-fold induction over basal)” value was 24.7 ± 2.6 -fold induction over basal.

Consider `CCCCCCCC(=O)NCCCC[C@H](NC(=O)[C@@H](N)Cc1cn(C23CC4CC(CC(C4)C2)C3)cn1)C(=O)N[C@@H](Cc1ccccc1)C(=O)N[C@@H](Cc1ccc(O)cc1)C(=O)O` [HKFY-23, N2-(Nt-(adamantan-1-yl)-L-histidyl)-N6-octanoyl-L-lysyl-L-phenylalanyl-L-tyrosine], for which the “ECmax (-fold induction over basal)” value was 15 ± 1.37 -fold induction over basal.

`CCCCCCCC(=O)NCCCC[C@H](N)C(=O)N[C@@H](Cc1ccccc1)C(=O)N[C@@H](Cc1ccc(O)cc1)C(=O)O` [HKFY-54, N6-octanoyl-L-lysyl-L-phenylalanyl-L-tyrosine] (H-Lys(Octanoyl)-Phe-Tyr-OH): the “ECmax (-fold induction over basal)” value was 7.8 ± 2.5 -fold induction over basal.

Turning to `CCCCCCCCCCCC(=O)NCCCC[C@H](NC(=O)[C@@H](N)Cc1cn(C(c2ccccc2)(c2ccccc2)c2ccccc2)cn1)C(=O)N[C@@H](Cc1ccccc1)C(=O)N[C@@H](Cc1ccc(O)cc1)C(=O)O` [HKFY-25, N6-dodecanoyl-N2-(Nt-trityl-L-histidyl)-L-lysyl-L-phenylalanyl-L-tyrosine] (H-[His(Trt)]K(Lauroyl)FY-OH), the “ECmax (-fold induction over basal)” value was 7.72 ± 0.57 -fold induction over basal.

Regarding `CCCCCCCC(=O)NCCCC[C@H](NC(=O)[C@@H](N)Cc1cn(C(c2ccccc2)(c2ccccc2)c2ccccc2)cn1)C(=O)N[C@@H](Cc1ccccc1)C(=O)N[C@@H](Cc1ccc(O)cc1)C(=O)N[C@@H](Cc1c[nH]c2ccccc12)C(=O)O` [HKFY-44, N6-octanoyl-N2-(Nt-trityl-L-histidyl)-L-lysyl-L-phenylalanyl-L-tyrosyl-L-tryptophan] (H-[His(Trt)]K(Octanoyl)FYW-OH), the “ECmax (-fold induction over basal)” value is reported as 20 ± 0.47 -fold induction over basal.

In the case of `CCCCCCCC(=O)NCCCC[C@H](NC(=O)[C@@H](N)Cc1cn(C(c2ccccc2)(c2ccccc2)c2ccccc2)cn1)C(=O)N[C@@H](Cc1ccc(O)cc1)C(=O)N[C@@H](Cc1ccc(O)cc1)C(=O)O` [HKFY-48, N6-octanoyl-N2-(Nt-trityl-L-histidyl)-L-lysyl-L-tyrosyl-L-tyrosine] (H-[His(Trt)]K(Octanoyl)YY-OH), the “ECmax (-fold induction over basal)” value is 14.4 ± 2.7 -fold induction over basal.

As for `CCCCCCCC(=O)NCCCC[C@H](NC(=O)[C@@H](N)Cc1cn(C(c2ccccc2)c2ccc(F)cc2F)cn1)C(=O)N[C@H](Cc1ccc(C)cc1)C(=O)N[C@@H](Cc1ccc(O)cc1)C(=O)O` (stereo partly drawn) [HKFY-32, ((2R)-2-((2S)-2-((2S)-2-amino-3-(1-((2,4-difluorophenyl)(phenyl)methyl)-1H-imidazol-4-yl)propanamido)-6-octanamidohexanamido)-3-(p-tolyl)propanoyl)-L-tyrosine], the “ECmax (-fold induction over basal)” value is 21.5 ± 2.7 -fold induction over basal.

`C[C@H](NC(=O)[C@H](CCC(N)=O)NC(=O)[C@H](CCC(N)=O)NC(=O)[C@H](CC(=O)O)NC(=O)[C@H](Cc1ccc(O)cc1)NC(=O)[C@H](Cc1ccccc1)NC(=O)[C@@H](N)Cc1cn(C(c2ccccc2)(c2ccccc2)c2ccccc2)cn1)C(=O)N[C@@H](CCCNC(=N)N)C(=O)N[C@@H](Cc1ccccc1)C(N)=O` [HKFY-52, (6S,9S,12S,15S,18S)-1-amino-6-(((S)-1-amino-1-oxo-3-phenylpropan-2-yl)carbamoyl)-18-((S)-2-((S)-2-((S)-2-amino-3-(1-trityl-1H-imidazol-4-yl)propanamido)-3-phenylpropanamido)-3-(4-hydroxyphenyl)propanamido)-12,15-bis(3-amino-3-oxopropyl)-1-imino-9-methyl-8,11,14,17-tetraoxo-2,7,10,13,16-pentaazaicosan-20-oic acid] (H-[His(Trt)]FYDQQARF-NH2): the “ECmax (-fold induction over basal)” value is reported as 15.5 ± 2.2 -fold induction over basal.

Regarding `CCCCCCCC(=O)NCCCC[C@H](NC(=O)[C@@H](N)Cc1cn(C(c2ccccc2)(c2ccccc2)c2ccccc2)cn1)C(=O)N[C@@H](CC(C)C)C(=O)N[C@@H](Cc1ccc(O)cc1)C(=O)O` [HKFY-51, N6-octanoyl-N2-(Nt-trityl-L-histidyl)-L-lysyl-L-leucyl-L-tyrosine] (H-[His(Trt)]K(Octanoyl)LY-OH), the “ECmax (-fold induction over basal)” value is 14.4 ± 1.9 -fold induction over basal.

Regarding `CCCCCCCC(=O)NCCCC[C@H](NC(=O)[C@@H](N)Cc1cn(C(c2ccccc2)c2ccccc2)cn1)C(=O)N[C@H](Cc1ccc(C)cc1)C(=O)N[C@@H](Cc1ccc(O)c(Cl)c1)C(=O)O` [HKFY-67, (S)-2-((R)-2-((S)-2-((S)-2-amino-3-(1-benzhydryl-1H-imidazol-4-yl)propanamido)-6-octanamidohexanamido)-3-(p-tolyl)propanamido)-3-(3-chloro-4-hydroxyphenyl)propanoic acid] (H-[His(τ-CHPh2)]K(Octanoyl)[dPhe(4-Me)][Tyr(3-Cl)]-OH), the “ECmax (-fold induction over basal)” value is on record as 10.2 ± 1.51 -fold induction over basal.

Regarding `CCCCCCCC(=O)NCCCC[C@H](NC(=O)[C@@H](N)Cc1cn(C(c2ccccc2)(c2ccccc2)c2ccccc2)cn1)C(=O)N[C@@H](Cc1ccccc1)C(=O)N[C@@H](Cc1ccc(O)cc1)C(=O)N[C@@H](CO)C(=O)N[C@@H](CC(=O)O)C(=O)N[C@@H](CCC(N)=O)C(=O)N[C@@H](CCC(N)=O)C(=O)N[C@@H](C)C(=O)N[C@@H](CCCNC(=N)N)C(=O)N[C@@H](Cc1ccccc1)C(N)=O` [HKFY-38, (3S,6S,9S,12S,15S)-15-((S)-2-amino-3-(1-trityl-1H-imidazol-4-yl)propanamido)-12-benzyl-3-(((6S,9S,12S,15S)-1,18-diamino-6-(((S)-1-amino-1-oxo-3-phenylpropan-2-yl)carbamoyl)-12-(3-amino-3-oxopropyl)-1-imino-9-methyl-8,11,14,18-tetraoxo-2,7,10,13-tetraazaoctadecan-15-yl)carbamoyl)-9-(4-hydroxybenzyl)-6-(hydroxymethyl)-5,8,11,14,21-pentaoxo-4,7,10,13,20-pentaazaoctacosanoic acid] (H-[His(Trt)]K(Octanoyl)FYSDQQARF-NH2), the “ECmax (-fold induction over basal)” value is 16.5 ± 0.02 -fold induction over basal.
